Measurements taken from ChEMBL document CHEMBL3414456, “Pentacyclic triterpene derivatives possessing polyhydroxyl ring A inhibit gram-positive bacteria growth by regulating metabolism and virulence genes expression” (2015).
≈ marks a conversion by molar mass, not a printed value. Calls of active or inactive are those of the source. No cut-off for these calls is given here.

Legend:
[1] = system: Staphylococcus aureus; assay: Antibacterial activity against […] Staphylococcus aureus ATCC 29213 by serial microplate method; type: functional
[2] = system: Escherichia coli; assay: Antibacterial activity against Escherichia coli ATCC 25922 by serial microplate method; type: functional
[3] = system: Bacillus spizizenii; assay: Antibacterial activity against Bacillus subtilis ATCC 6633 assessed as growth inhibition at 100 uM after 24 hrs by turbidimetric analysis; type: functional; conditions: for inhibition of growth at 100 µM: ATCC 6633, 24 h, read-out: GI
[4] = system: Staphylococcus aureus; assay: Antibacterial activity against Staphylococcus aureus ATCC 25923 assessed as growth inhibition at 100 uM after 24 hrs by turbidimetric analysis; type: functional; conditions: for inhibition of growth at 100 µM: ATCC 25923, 24 h, read-out: GI
[5] = system: Streptomyces scabiei; assay: Antibacterial activity against Streptomyces scabiei CGMCC4.7610246 assessed as growth inhibition at 100 uM after 36 hrs by turbidimetric analysis; type: functional, organism-based
[6] = system: Escherichia coli; assay: Antibacterial activity against Escherichia coli assessed as growth inhibition at 100 uM after 24 hrs by turbidimetric analysis; type: functional, organism-based
[7] = system: Ralstonia solanacearum; assay: Antibacterial activity against Ralstonia solanacearum assessed as growth inhibition at 100 uM after 24 hrs by turbidimetric analysis; type: functional, organism-based
[8] = system: Bacillus spizizenii; assay: Antibacterial activity against Bacillus subtilis ATCC 6633 assessed as growth inhibition after 2 to 24 hrs; type: functional, organism-based
[9] = system: Bacillus spizizenii; assay: Antibacterial activity against Bacillus subtilis ATCC 6633 assessed as growth inhibition after 24 hrs by turbidimetric analysis; type: functional; conditions: ATCC 6633, 24 h
[10] = system: Staphylococcus aureus; assay: Antibacterial activity against Staphylococcus aureus ATCC 25923 assessed as growth inhibition after 24 hrs by turbidimetric analysis; type: functional; conditions: ATCC 25923, 24 h
[11] = system: Streptomyces scabiei; assay: Antibacterial activity against Streptomyces scabiei CGMCC4.7610246 assessed as growth inhibition after 36 hrs by turbidimetric analysis; type: functional; conditions: CGMCC4.7610246, 36 h
[12] = system: Staphylococcus aureus; assay: Potency index, ratio of ampicillin MIC to compound MIC for Staphylococcus aureus ATCC 25923; type: functional
[13] = system: Staphylococcus aureus; assay: Upregulation of fmhB gene expression in Staphylococcus aureus ATCC 25923 at 0.5 x MIC by Q-RT-PCR analysis relative to control; type: functional, organism-based
[14] = system: Staphylococcus aureus; assay: Upregulation of seaR gene expression in Staphylococcus aureus ATCC 25923 at 0.5 x MIC by Q-RT-PCR analysis relative to control; type: functional, organism-based
[15] = system: Staphylococcus aureus; assay: Upregulation of hla gene expression in Staphylococcus aureus ATCC 25923 at 0.5 x MIC by Q-RT-PCR analysis relative to control; type: functional, organism-based
[16] = system: Staphylococcus aureus; assay: Downregulation of narG gene expression in Staphylococcus aureus ATCC 25923 at 0.5 x MIC by Q-RT-PCR analysis relative to control; type: functional, organism-based
[17] = system: Staphylococcus aureus; assay: Downregulation of lytM gene expression in Staphylococcus aureus ATCC 25923 at 0.5 x MIC by Q-RT-PCR analysis relative to control; type: functional, organism-based
[18] = system: Bacillus subtilis; assay: Antibacterial activity against Bacillus subtilis; type: functional
[19] = system: Staphylococcus aureus; assay: Antibacterial activity against Staphylococcus aureus; type: functional
[20] = system: Bacillus spizizenii; assay: Upregulation of ykuD gene expression in Bacillus subtilis ATCC 6633 at 0.5 x MIC by Q-RT-PCR analysis relative to control; type: functional
[21] = system: Bacillus spizizenii; assay: Downregulation of lytF gene expression in Bacillus subtilis ATCC 6633 at 0.5 x MIC by Q-RT-PCR analysis relative to control; type: functional, organism-based
[22] = system: Bacillus spizizenii; assay: Downregulation of mmgD gene expression in Bacillus subtilis ATCC 6633 at 0.5 x MIC by Q-RT-PCR analysis relative to control; type: functional, organism-based
[23] = system: Bacillus spizizenii; assay: Downregulation of yhdT gene expression in Bacillus subtilis ATCC 6633 at 0.5 x MIC by Q-RT-PCR analysis relative to control; type: functional, organism-based
[24] = system: Bacillus spizizenii; assay: Downregulation of yqhB gene expression in Bacillus subtilis ATCC 6633 at 0.5 x MIC by Q-RT-PCR analysis relative to control; type: functional, organism-based
[25] = system: Streptomyces scabiei; assay: Downregulation of p450 gene expression in Streptomyces scabiei CGMCC4.7610246 at 0.5 x MIC by Q-RT-PCR analysis relative to control; type: functional, organism-based
[26] = system: Streptomyces scabiei; assay: Antibacterial activity against Streptomyces scabiei CGMCC4.7610246 assessed as growth inhibition after 4 to 36 hrs; type: functional, organism-based
[27] = system: Streptomyces scabiei; assay: Antibacterial activity against Streptomyces scabiei CGMCC4.7610246 assessed as killing time at 0.5 x MIC to 4 x MIC; type: functional
[28] = system: Streptomyces scabiei; assay: Downregulation of murX gene expression in Streptomyces scabiei CGMCC4.7610246 at 0.5 x MIC by Q-RT-PCR analysis relative to control; type: functional, organism-based
[29] = system: Streptomyces scabiei; assay: Downregulation of tomA gene expression in Streptomyces scabiei CGMCC4.7610246 at 0.5 x MIC by Q-RT-PCR analysis relative to control; type: functional, organism-based
[30] = system: Streptomyces scabiei; assay: Downregulation of necl gene expression in Streptomyces scabiei CGMCC4.7610246 at 0.5 x MIC by Q-RT-PCR analysis relative to control; type: functional, organism-based
[31] = system: Streptomyces scabiei; assay: Downregulation of txtA gene expression in Streptomyces scabiei CGMCC4.7610246 at 0.5 x MIC by Q-RT-PCR analysis relative to control; type: functional, organism-based
[32] = system: Streptomyces scabiei; assay: Downregulation of txtC gene expression in Streptomyces scabiei CGMCC4.7610246 at 0.5 x MIC by Q-RT-PCR analysis relative to control; type: functional, organism-based
[33] = system: Staphylococcus aureus; assay: Antibacterial activity against Staphylococcus aureus ATCC 25923 assessed as growth inhibition after 2 to 24 hrs; type: functional, organism-based
[34] = system: Staphylococcus aureus; assay: Antibacterial activity against Staphylococcus aureus after 24 hrs; type: functional
[35] = system: Microsporum canis; assay: Antifungal activity against Microsporum canis by serial microplate method; type: functional
[36] = system: Meyerozyma guilliermondii; assay: Antifungal activity against Candida guilliermondii by serial microplate method; type: functional

CC1(C)[C@@H](O)C[C@H](O)[C@]2(C)[C@H]3CC=C4[C@@H]5C[C@](C)(C(=O)O)CC[C@]5(C(=O)O)CC[C@@]4(C)[C@]3(C)CC[C@@H]12
MIC [1]: 125 µg/mL (≈ 249 µM) | MIC [2]: 16 µg/mL (≈ 31.8 µM)

C[C@H]1[C@H](C)CC[C@]2(C(=O)OCc3ccccc3)CC[C@]3(C)C(=CC[C@@H]4[C@@]5(C)[C@H]6O[C@H]6[C@H](O)C(C)(C)[C@@H]5CC[C@]43C)[C@H]12
growth inhibition (GI) [3]: Active | growth inhibition (GI) [4]: Active | growth inhibition (GI) [5]: Active | growth inhibition (GI) [6]: Active | growth inhibition (GI) [7]: Active

CC1(C)CC[C@]2(C(=O)O)CC[C@]3(C)C(=CC[C@@H]4[C@@]5(C)[C@H]6O[C@H]6[C@H](O)C(C)(C)[C@@H]5CC[C@]43C)[C@@H]2C1
growth inhibition (GI) [3]: Active | growth inhibition (GI) [4]: Active | growth inhibition (GI) [5]: Active | growth inhibition (GI) [8]: Dose-dependent effect

CCOC(=O)[C@]12CC[C@@H](C)[C@H](C)[C@H]1C1=CC[C@@H]3[C@@]4(C)[C@@H](O)[C@H](O)[C@H](O)C(C)(C)[C@@H]4CC[C@@]3(C)[C@]1(C)CC2
inhibition of growth at 100 µM [3]: > 95% | inhibition of growth at 100 µM [4]: > 95% | MIC [9]: 64 µM (≈ 33.1 µg/mL) | MIC [10]: 2 µM (≈ 1.03 µg/mL) | MIC [11]: ≥ 100 µM | Ratio [12]: 2 | Activity [13]: Active | Activity [14]: Active | Activity [15]: Active | Activity [16]: Active | Activity [17]: Active

CC1OC(OC[C@]2(C)[C@@H](O)[C@@H](O)[C@@H](O)[C@]3(C)[C@H]4CC=C5[C@@H]6[C@@H](C)[C@H](C)CC[C@]6(C)CC[C@@]5(C)[C@]4(C)CC[C@@H]23)C(O)C(O)C1O (some centres undefined)
MIC [18]: 15.6 µg/mL (≈ 25.1 µM) | MIC [19]: 31.3 µg/mL (≈ 50.4 µM)

C[C@H]1[C@H](C)CC[C@]2(C(=O)O)CC[C@]3(C)C(=CC[C@@H]4[C@@]5(C)CC[C@H](O)C(C)(C)[C@@H]5CC[C@]43C)[C@H]12
growth inhibition (GI) [3]: Active | growth inhibition (GI) [4]: Active | growth inhibition (GI) [5]: Active | Activity [20]: Active | Activity [21]: Active | Activity [22]: Active | Activity [23]: Active | Activity [24]: Active | Activity [13]: Active | Activity [14]: Active | Activity [15]: Active

COC(=O)[C@]12CCC(C)(C)C[C@H]1C1=CC[C@@H]3[C@@]4(C)[C@@H](O)[C@H](O)[C@H](O)C(C)(C)[C@@H]4CC[C@@]3(C)[C@]1(C)CC2
Activity [25]: Active | inhibition of growth at 100 µM [3]: > 95% | inhibition of growth at 100 µM [4]: > 95% | MIC [9]: 64 µM (≈ 32.2 µg/mL) | MIC [10]: ≥ 100 µM | MIC [11]: 4 µM (≈ 2.01 µg/mL) | growth inhibition (GI) [26]: Dose-dependent effect | Time [27]: >24 h | Activity [28]: Active | Activity [29]: Active | Activity [30]: Active | Activity [31]: Active | Activity [32]: Active

CCOC(=O)[C@]12CCC(C)(C)C[C@H]1C1=CC[C@@H]3[C@@]4(C)[C@@H](O)[C@H](O)[C@H](O)C(C)(C)[C@@H]4CC[C@@]3(C)[C@]1(C)CC2
inhibition of growth at 100 µM [3]: > 95% | inhibition of growth at 100 µM [4]: > 95% | MIC [9]: 64 µM (≈ 33.1 µg/mL) | MIC [10]: 1 µM (≈ 0.517 µg/mL) | MIC [11]: ≥ 100 µM | Ratio [12]: 2 | growth inhibition (GI) [33]: Dose-dependent effect | Activity [13]: Active | Activity [14]: Active | Activity [15]: Active | Activity [17]: Active

C[C@@H](O)[C@H]1C(=O)N2C(C(=O)O)=C(SCCNC=N)C[C@H]12 [IMIPENEM ANHYDROUS]
inhibition zone (IZ) [34]: 33 mm

CC(C)OC(=O)[C@]12CC[C@@H](C)[C@H](C)[C@H]1C1=CC[C@@H]3[C@@]4(C)[C@@H](O)[C@H](O)[C@H](O)C(C)(C)[C@@H]4CC[C@@]3(C)[C@]1(C)CC2
inhibition of growth at 100 µM [3]: > 95% | inhibition of growth at 100 µM [4]: > 95% | MIC [9]: 4 µM (≈ 2.12 µg/mL) | MIC [10]: 1 µM (≈ 0.531 µg/mL) | MIC [11]: ≥ 100 µM | Ratio [12]: 4 | growth inhibition (GI) [33]: Dose-dependent effect | fold change (FC) [20]: 2.5 | Activity [21]: Active | Activity [22]: Active | Activity [23]: Active | Activity [24]: inactive | Activity [13]: Active | Activity [14]: Active | Activity [15]: Active | Activity [16]: Active

C[C@H]1[C@H](C)C=C[C@]2(C(=O)O)CC[C@]3(C)C(=CC[C@H]4[C@]5(C)[C@H]([C@H](O)C[C@]43C)C(C)(C)[C@@H](O)[C@H](O)[C@@H]5O)[C@H]12
inhibition zone (IZ) [34]: 24 mm

C[C@@]1(C(=O)O)CC[C@]2(C(=O)O)CC[C@]3(C)C(=CC[C@@H]4[C@@]5(C)[C@@H](O)C[C@H](O)[C@](C)(CO)[C@@H]5CC[C@]43C)[C@@H]2C1
MIC [1]: 63 µg/mL (≈ 121 µM) | MIC [2]: 16 µg/mL (≈ 30.8 µM)

C[C@H]1[C@H](C)CC[C@]2(C(=O)O)CC[C@]3(C)C(=CC[C@@H]4[C@@]5(C)C[C@@H](O)[C@H](O)C(C)(C)[C@@H]5CC[C@]43C)[C@H]12 [COROSOLIC ACID]
MIC [35]: 8 µg/mL (≈ 16.9 µM) | MIC [36]: 11.7 µg/mL (≈ 24.8 µM) | MIC [1]: 7 µg/mL (≈ 14.8 µM)

CC1(C)CC[C@]2(C(=O)O)CC[C@]3(C)C(=CC[C@@H]4[C@@]5(C)CC[C@H](O)C(C)(C)[C@@H]5CC[C@]43C)[C@@H]2C1
Activity [25]: inactive | growth inhibition (GI) [3]: Active | growth inhibition (GI) [4]: Active | growth inhibition (GI) [5]: Active | Activity [13]: Active | Activity [14]: Active | Activity [15]: Active | Activity [28]: Active | Activity [29]: Active | Activity [30]: Active | Activity [31]: Active | Activity [32]: Active
